Measured values reported in patent US20170087174A1, “COMBINATION THERAPY REGIMEN FOR TREATMENT OF HCV” (JANSSEN PHARMACEUTICALS, INC., priority 2015, published 2017).

Tests used:
2B6 = biological target: T1, 2B6 (Homo sapiens, UniProt P20813); assay: CYP2B6 inhibition; type: in vitro ADME; conditions: up to 10 μM
T1 sequence (P20813 1-491): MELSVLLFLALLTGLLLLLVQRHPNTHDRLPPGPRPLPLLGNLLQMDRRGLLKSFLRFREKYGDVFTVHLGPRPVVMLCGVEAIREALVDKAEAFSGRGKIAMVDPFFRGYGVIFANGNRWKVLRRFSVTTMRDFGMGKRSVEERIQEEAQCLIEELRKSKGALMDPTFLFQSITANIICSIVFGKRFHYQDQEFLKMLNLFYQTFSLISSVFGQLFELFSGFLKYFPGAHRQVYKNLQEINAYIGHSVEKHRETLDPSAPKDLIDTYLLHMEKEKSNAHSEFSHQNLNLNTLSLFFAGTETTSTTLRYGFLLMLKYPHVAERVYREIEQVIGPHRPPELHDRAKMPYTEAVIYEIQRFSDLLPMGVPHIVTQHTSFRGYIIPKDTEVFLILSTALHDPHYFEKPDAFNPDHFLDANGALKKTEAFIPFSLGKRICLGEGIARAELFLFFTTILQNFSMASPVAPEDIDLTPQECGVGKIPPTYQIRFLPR

MRP2/3 = MRP2/3 (Homo sapiens, UniProt O15438); conditions: in vitro; cited from earlier work
[1] = tested on: Rosuvastatin (substrate of OATPs & BCRP); conditions: SMV co-administered with Rosuvastatin; cited from earlier work

MRP2/3, sequence (O15438 whole entry): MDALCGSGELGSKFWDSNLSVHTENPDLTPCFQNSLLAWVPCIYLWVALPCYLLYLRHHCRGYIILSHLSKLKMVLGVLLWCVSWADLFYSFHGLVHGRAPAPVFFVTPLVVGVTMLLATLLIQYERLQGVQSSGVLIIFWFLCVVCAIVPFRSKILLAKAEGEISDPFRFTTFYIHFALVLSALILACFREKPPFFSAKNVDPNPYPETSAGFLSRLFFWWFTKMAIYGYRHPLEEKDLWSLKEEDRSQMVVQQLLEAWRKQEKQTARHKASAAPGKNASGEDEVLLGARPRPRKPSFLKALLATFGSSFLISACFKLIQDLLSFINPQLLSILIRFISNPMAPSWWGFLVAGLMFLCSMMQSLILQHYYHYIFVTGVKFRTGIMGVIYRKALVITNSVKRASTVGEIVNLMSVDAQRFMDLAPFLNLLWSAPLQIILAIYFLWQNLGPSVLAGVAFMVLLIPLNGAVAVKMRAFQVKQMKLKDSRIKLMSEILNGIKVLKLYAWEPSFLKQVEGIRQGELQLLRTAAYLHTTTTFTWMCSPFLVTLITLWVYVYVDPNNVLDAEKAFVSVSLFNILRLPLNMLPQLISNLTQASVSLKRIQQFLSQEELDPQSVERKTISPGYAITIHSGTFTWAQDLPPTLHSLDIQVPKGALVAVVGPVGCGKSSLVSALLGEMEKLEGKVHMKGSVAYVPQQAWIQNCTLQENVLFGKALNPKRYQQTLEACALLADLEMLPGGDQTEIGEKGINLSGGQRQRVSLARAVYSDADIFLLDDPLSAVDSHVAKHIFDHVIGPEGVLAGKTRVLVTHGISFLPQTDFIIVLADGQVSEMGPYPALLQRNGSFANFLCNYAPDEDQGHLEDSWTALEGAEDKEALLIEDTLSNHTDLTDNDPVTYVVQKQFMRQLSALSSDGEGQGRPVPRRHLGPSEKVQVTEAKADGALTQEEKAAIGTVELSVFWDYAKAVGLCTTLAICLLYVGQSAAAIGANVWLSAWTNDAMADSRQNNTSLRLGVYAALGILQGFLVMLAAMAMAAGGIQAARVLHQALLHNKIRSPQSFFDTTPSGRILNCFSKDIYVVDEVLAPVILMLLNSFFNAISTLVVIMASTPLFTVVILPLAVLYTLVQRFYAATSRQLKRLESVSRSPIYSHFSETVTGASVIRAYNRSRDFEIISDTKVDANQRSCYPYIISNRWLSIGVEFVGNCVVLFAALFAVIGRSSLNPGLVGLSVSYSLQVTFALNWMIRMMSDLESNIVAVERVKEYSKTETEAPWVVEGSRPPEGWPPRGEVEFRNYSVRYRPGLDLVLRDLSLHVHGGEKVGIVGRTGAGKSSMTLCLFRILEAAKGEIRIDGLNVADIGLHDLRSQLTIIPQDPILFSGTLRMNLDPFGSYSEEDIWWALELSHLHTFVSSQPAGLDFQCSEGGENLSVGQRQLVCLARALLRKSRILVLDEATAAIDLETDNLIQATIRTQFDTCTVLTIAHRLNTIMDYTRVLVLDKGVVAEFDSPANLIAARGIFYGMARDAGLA

Row | Compound | inhibition of 2B6 (2B6) | MRP3 inhibition (in words) (MRP2/3) | increase in Rosuvastatin exposure [1] [fold]
1 | COC(=O)N[C@H](C(=O)N1[C@H](c2nc3cc(-c4cc5ccc4CCc4ccc(c(-c6ccc7[nH]c([C@@H]8C[C@@H]9CCCC[C@@H]9N8C(=O)[C@@H](NC(=O)OC)C(C)C)nc7c6)c4)CC5)ccc3[nH]2)C[C@@H]2CCCC[C@@H]21)C(C)C [ODV, Odalasvir] | no inhibition | no inhibition | 
2 | COc1ccc2c(O[C@@H]3C[C@H]4C(=O)N[C@]5(C(=O)NS(=O)(=O)C6CC6)C[C@H]5/C=C\CCCCN(C)C(=O)[C@@H]4C3)cc(-c3nc(C(C)C)cs3)nc2c1C [SMV, Simeprevir, reference compound] |  |  | 3
